Test results: the supplement of paper PMC10307832

Key:
Assay in all cases: relative viability (nuclei count vs DMSO), 5 days (fraction); higher = more cells survive
NCI-H520 = system: NCI-H520
In short: (§1)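 Lung cancer cell lines in 1536-well plates were dosed by pin tool the day after seeding, either with one drug alone or with a fixed anchor-drug dose plus five library-drug doses (not always all listed) in √10 steps. After 5 days, cells were fixed and their nuclei stained in one step (final 0.05% Triton X-100, 1% formaldehyde, 1 ug/ml Hoechst), then counted on 4× images. Relative viability is the nuclei count in treated wells divided by that in vehicle wells. Values are medians of duplicate plates.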

NCI-H650 = system: NCI-H650
In short: as §1

EKVX = system: EKVX
In short: as §1

NCI-H1650 = system: NCI-H1650
In short: as §1

NCI-H460 = system: NCI-H460
In short: as §1

NCI-H441 = system: NCI-H441
In short: as §1

LK-2 = system: LK-2
In short: as §1

NCI-H2347 = system: NCI-H2347
In short: as §1

NCI-H1666 = system: NCI-H1666
In short: as §1

NCI-H838 = system: NCI-H838
In short: as §1

H3255 = system: H3255
In short: as §1

ChaGo-K-1 = system: ChaGo-K-1
In short: as §1

NCI-H3122 = system: NCI-H3122
In short: as §1

SW 1573 = system: SW 1573
In short: as §1

A-427 = system: A-427
In short: as §1

NCI-H1944 = system: NCI-H1944
In short: as §1

NCI-H2228 = system: NCI-H2228
In short: as §1

NCI-H1755 = system: NCI-H1755
In short: as §1

NCI-H1355 = system: NCI-H1355
In short: as §1

NCI-H2085 = system: NCI-H2085
In short: as §1

NCI-H322M = system: NCI-H322M
In short: as §1

NCI-H596 = system: NCI-H596
In short: as §1

NCI-H358 = system: NCI-H358
In short: as §1

`O=C(O)CCCCC(CCSCc1ccccc1)SCc1ccccc1` (configuration not stated) [CPI-613] + COc1cc2c(Oc3ccc(NC(=O)C4(C(=O)Nc5ccc(F)cc5)CC4)cc3F)ccnc2cc1OCCCN1CCOCC1 [Foretinib] (partner 0.25 µM) gave a relative viability (NCI-H520; first compound 5 µM) of 0.755, a relative viability (NCI-H520; first compound 15.81 µM) of 0.784 and a relative viability (NCI-H520; first compound 50 µM) of 0.623. The relative viability (NCI-H520; first compound 158.11 µM) was 0.523, the relative viability (NCI-H520; first compound 500 µM) was 0.142 and the relative viability (NCI-H650; first compound 5 µM) was 0.947. The relative viability (NCI-H650; first compound 15.81 µM) was 1, the relative viability (NCI-H650; first compound 50 µM) was 0.979 and the relative viability (NCI-H650; first compound 158.11 µM) was 0.836. The relative viability (NCI-H650; first compound 500 µM) was 0.806, the relative viability (EKVX; first compound 5 µM) was 0.83 and the relative viability (EKVX; first compound 15.81 µM) was 0.754. For the same molecule, the relative viability (EKVX; first compound 50 µM) was 0.983, the relative viability (EKVX; first compound 158.11 µM) was 0.399 and the relative viability (EKVX; first compound 500 µM) was 0.531. For the same molecule, the relative viability (NCI-H1650; first compound 5 µM) was 1.35, the relative viability (NCI-H1650; first compound 15.81 µM) was 0.905 and the relative viability (NCI-H1650; first compound 50 µM) was 1.16. It also gave a relative viability (NCI-H1650; first compound 158.11 µM) of 0.0583, a relative viability (NCI-H1650; first compound 500 µM) of 0.0222 and a relative viability (NCI-H460; first compound 5 µM) of 0.979. For the same molecule, the relative viability (NCI-H460; first compound 15.81 µM) was 0.978, the relative viability (NCI-H460; first compound 50 µM) was 1.01 and the relative viability (NCI-H460; first compound 158.11 µM) was 0.479. The relative viability (NCI-H460; first compound 500 µM) was 0.0276, the relative viability (NCI-H441; first compound 5 µM) was 0.962 and the relative viability (NCI-H441; first compound 15.81 µM) was 0.948. For the same molecule, the relative viability (NCI-H441; first compound 50 µM) was 0.937, the relative viability (NCI-H441; first compound 158.11 µM) was 0.271 and the relative viability (NCI-H441; first compound 500 µM) was 0.076. It also gave a relative viability (LK-2; first compound 5 µM) of 1.45, a relative viability (LK-2; first compound 15.81 µM) of 1.18 and a relative viability (LK-2; first compound 50 µM) of 1.16. For the same molecule, the relative viability (LK-2; first compound 158.11 µM) was 1.06, the relative viability (LK-2; first compound 500 µM) was 0.126 and the relative viability (NCI-H2347; first compound 5 µM) was 0.7. The relative viability (NCI-H2347; first compound 15.81 µM) was 1.05, the relative viability (NCI-H2347; first compound 50 µM) was 1.09 and the relative viability (NCI-H2347; first compound 500 µM) was 1.05. The relative viability (NCI-H1666; first compound 5 µM) was 0.944, the relative viability (NCI-H1666; first compound 15.81 µM) was 0.901 and the relative viability (NCI-H1666; first compound 50 µM) was 0.971. It also gave a relative viability (NCI-H1666; first compound 158.11 µM) of 0.397, a relative viability (NCI-H1666; first compound 500 µM) of 0.206 and a relative viability (NCI-H838; first compound 5 µM) of 0.98. It also gave a relative viability (NCI-H838; first compound 15.81 µM) of 1.02, a relative viability (NCI-H838; first compound 50 µM) of 1.03 and a relative viability (NCI-H838; first compound 158.11 µM) of 0.657. For the same molecule, the relative viability (NCI-H838; first compound 500 µM) was 0.116, the relative viability (H3255; first compound 5 µM) was 0.887 and the relative viability (H3255; first compound 15.81 µM) was 0.685. The relative viability (H3255; first compound 50 µM) was 0.89, the relative viability (H3255; first compound 500 µM) was 0.785 and the relative viability (ChaGo-K-1; first compound 5 µM) was 0.818. For the same molecule, the relative viability (ChaGo-K-1; first compound 15.81 µM) was 0.901, the relative viability (ChaGo-K-1; first compound 50 µM) was 0.929 and the relative viability (ChaGo-K-1; first compound 158.11 µM) was 0.245. It also gave a relative viability (ChaGo-K-1; first compound 500 µM) of 0.105, a relative viability (NCI-H3122; first compound 5 µM) of 0.989 and a relative viability (NCI-H3122; first compound 15.81 µM) of 0.895. The relative viability (NCI-H3122; first compound 50 µM) was 0.971, the relative viability (NCI-H3122; first compound 158.11 µM) was 0.858 and the relative viability (NCI-H3122; first compound 500 µM) was 0.0742. For the same molecule, the relative viability (SW 1573; first compound 5 µM) was 0.943, the relative viability (SW 1573; first compound 15.81 µM) was 0.807 and the relative viability (SW 1573; first compound 50 µM) was 0.844. The relative viability (SW 1573; first compound 158.11 µM) was 0.88, the relative viability (SW 1573; first compound 500 µM) was 0.871 and the relative viability (A-427; first compound 5 µM) was 1.14. The relative viability (A-427; first compound 15.81 µM) was 1.11, the relative viability (A-427; first compound 50 µM) was 0.86 and the relative viability (A-427; first compound 158.11 µM) was 0.526. It also gave a relative viability (A-427; first compound 500 µM) of 0.131, a relative viability (NCI-H1944; first compound 5 µM) of 0.923 and a relative viability (NCI-H1944; first compound 15.81 µM) of 0.878. It also gave a relative viability (NCI-H1944; first compound 50 µM) of 0.967, a relative viability (NCI-H1944; first compound 158.11 µM) of 0.649 and a relative viability (NCI-H1944; first compound 500 µM) of 0.0567. For the same molecule, the relative viability (NCI-H2228; first compound 5 µM) was 0.719, the relative viability (NCI-H2228; first compound 15.81 µM) was 0.948 and the relative viability (NCI-H2228; first compound 50 µM) was 0.78. The relative viability (NCI-H2228; first compound 158.11 µM) was 0.332, the relative viability (NCI-H2228; first compound 500 µM) was 0.088 and the relative viability (NCI-H1755; first compound 5 µM) was 0.886. It also gave a relative viability (NCI-H1755; first compound 15.81 µM) of 0.878, a relative viability (NCI-H1755; first compound 50 µM) of 0.898 and a relative viability (NCI-H1755; first compound 158.11 µM) of 0.887. For the same molecule, the relative viability (NCI-H1755; first compound 500 µM) was 0.175, the relative viability (NCI-H1355; first compound 5 µM) was 0.941 and the relative viability (NCI-H1355; first compound 15.81 µM) was 0.94. The relative viability (NCI-H1355; first compound 50 µM) was 0.998, the relative viability (NCI-H1355; first compound 158.11 µM) was 0.455 and the relative viability (NCI-H1355; first compound 500 µM) was 0.137. For the same molecule, the relative viability (NCI-H2085; first compound 5 µM) was 0.767, the relative viability (NCI-H2085; first compound 15.81 µM) was 0.927 and the relative viability (NCI-H2085; first compound 50 µM) was 0.933. The relative viability (NCI-H2085; first compound 158.11 µM) was 0.286, the relative viability (NCI-H2085; first compound 500 µM) was 0.0979 and the relative viability (NCI-H322M; first compound 5 µM) was 0.969. It also gave a relative viability (NCI-H322M; first compound 15.81 µM) of 0.972, a relative viability (NCI-H322M; first compound 50 µM) of 1.04 and a relative viability (NCI-H322M; first compound 158.11 µM) of 0.689. It also gave a relative viability (NCI-H322M; first compound 500 µM) of 0.0324, a relative viability (NCI-H596; first compound 5 µM) of 0.862 and a relative viability (NCI-H596; first compound 15.81 µM) of 0.969. For the same molecule, the relative viability (NCI-H596; first compound 50 µM) was 0.813, the relative viability (NCI-H596; first compound 158.11 µM) was 0.592 and the relative viability (NCI-H596; first compound 500 µM) was 0.0375. It also gave a relative viability (NCI-H358; first compound 15.81 µM) of 0.648, a relative viability (NCI-H358; first compound 50 µM) of 0.713 and a relative viability (NCI-H358; first compound 158.11 µM) of 0.369. It also gave a relative viability (NCI-H358; first compound 500 µM) of 0.0356.
